“And” between values parts separate entries of the source, which are not always exact repeats. Identical values can stand only once.
Experiments:
[1] = target: T1, rat CB2 receptor (Rattus norvegicus, UniProt Q9QZN9); experiment: CB2 receptor internalization assay (enzyme complementation); format: cell-based; details: relative to CP55,940
T1 sequence (Q9QZN9 1-360): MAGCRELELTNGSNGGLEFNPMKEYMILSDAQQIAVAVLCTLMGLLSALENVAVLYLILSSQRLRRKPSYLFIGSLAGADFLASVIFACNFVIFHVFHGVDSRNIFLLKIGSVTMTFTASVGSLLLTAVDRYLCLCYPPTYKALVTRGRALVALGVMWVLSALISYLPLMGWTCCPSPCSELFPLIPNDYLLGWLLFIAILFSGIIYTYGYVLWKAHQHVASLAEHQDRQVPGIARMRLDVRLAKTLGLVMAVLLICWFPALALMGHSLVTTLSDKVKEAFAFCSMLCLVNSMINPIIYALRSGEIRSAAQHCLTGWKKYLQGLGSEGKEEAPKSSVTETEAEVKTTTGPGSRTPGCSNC
Procedure: (§1) Receptor internalization assays for the CB2 receptor were performed using the PathHunter® Total GPCR Internalization system from DiscoverRx (Fremont, Calif.). The assay was performed in CB2-receptor-expressing stable cell lines generated in the PathHunter® U2OS parental cell line.
(§2) Total GPCR internalization assays were performed per the manufacturer's instructions. Briefly, PathHunter® U2OS cells stably expressing the recombinant human or rat CB2 receptor were seeded into 96-well microtiter assay plates (Catalog #3610, Corning Inc., Corning, N.Y.) at a density of 20,000 cells per well in 100 μL growth medium and cultured in a humidified 37° C. incubator overnight. Growth medium was exchanged the following day for 100 μL serum-free medium (OptiMEM), and cells were incubated overnight in a humidified 37° C. incubator. On the day of the assay, test compounds dissolved in DMSO were serially diluted in DMSO and then further diluted in OptiMEM to achieve 11× concentrations in 5.5% DMSO. Aliquots (10 μL) of diluted test compounds were added to the assay plates, which were then incubated in a humidified 37° C. incubator for 3 hours. Lysis/detection reagents (55 μL total) were then added and the plates were incubated for an additional 1 hour at room temperature. Plates were then read on an appropriate plate reader (e.g., EnVision (Perkin Elmer, Waltham, Mass.) or PheraStar (BMG)). Dose-response curves were generated using a minimum of 8 different test concentrations and triplicate determinations were made at each test concentration. Assay performance was monitored by inclusion of a standard CB2 reference agonist such as CP55,940 and agonist internalization efficacies were reported relative to that of the reference agonist.

[2] = target: T2, hCB2 (Homo sapiens, UniProt P34972); experiment: as above; format: cell-based; details: for receptor internalization, human CB2 (words): relative to CP55,940
T2 sequence (P34972 whole entry): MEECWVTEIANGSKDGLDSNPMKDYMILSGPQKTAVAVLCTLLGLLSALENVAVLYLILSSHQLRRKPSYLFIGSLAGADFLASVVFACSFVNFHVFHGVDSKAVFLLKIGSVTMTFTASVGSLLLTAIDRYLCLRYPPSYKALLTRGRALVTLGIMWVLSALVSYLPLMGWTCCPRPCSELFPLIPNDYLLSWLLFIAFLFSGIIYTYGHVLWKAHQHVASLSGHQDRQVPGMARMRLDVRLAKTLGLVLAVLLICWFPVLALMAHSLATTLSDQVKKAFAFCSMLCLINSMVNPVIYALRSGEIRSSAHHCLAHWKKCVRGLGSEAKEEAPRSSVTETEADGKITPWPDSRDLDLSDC
Procedure: as §1, §2

[3] = target: rat CB1 receptor (Rattus norvegicus, UniProt P20272); experiment: β-arrestin recruitment assay (PathHunter CHO-K1); format: cell-based
rat CB1 receptor, sequence (P20272 whole entry): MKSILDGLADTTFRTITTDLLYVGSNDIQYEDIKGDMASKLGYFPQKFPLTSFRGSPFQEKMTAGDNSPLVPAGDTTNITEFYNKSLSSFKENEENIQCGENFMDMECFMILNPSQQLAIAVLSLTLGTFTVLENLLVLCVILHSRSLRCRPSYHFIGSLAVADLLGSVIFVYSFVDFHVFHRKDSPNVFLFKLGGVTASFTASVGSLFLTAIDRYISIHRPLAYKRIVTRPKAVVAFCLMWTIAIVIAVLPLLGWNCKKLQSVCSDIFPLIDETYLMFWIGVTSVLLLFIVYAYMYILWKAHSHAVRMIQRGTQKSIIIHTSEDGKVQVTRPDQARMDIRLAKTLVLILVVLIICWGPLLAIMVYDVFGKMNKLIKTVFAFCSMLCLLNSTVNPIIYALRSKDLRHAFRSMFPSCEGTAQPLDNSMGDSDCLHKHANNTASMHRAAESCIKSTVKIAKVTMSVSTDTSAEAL

[4] = target: T2, hCB2; details: reported by Glenmark, cited from earlier work
[5] = target: T3, mouse CB2 receptor (Mus musculus, UniProt P47936); experiment: β-arrestin recruitment assay (PathHunter CHO-K1); format: cell-based; details: for β-arrestin efficacy, mouse CB2: relative to reference agonist
T3 construct: host or cells: PathHunter CHO-K1
T3 sequence (P47936 whole entry): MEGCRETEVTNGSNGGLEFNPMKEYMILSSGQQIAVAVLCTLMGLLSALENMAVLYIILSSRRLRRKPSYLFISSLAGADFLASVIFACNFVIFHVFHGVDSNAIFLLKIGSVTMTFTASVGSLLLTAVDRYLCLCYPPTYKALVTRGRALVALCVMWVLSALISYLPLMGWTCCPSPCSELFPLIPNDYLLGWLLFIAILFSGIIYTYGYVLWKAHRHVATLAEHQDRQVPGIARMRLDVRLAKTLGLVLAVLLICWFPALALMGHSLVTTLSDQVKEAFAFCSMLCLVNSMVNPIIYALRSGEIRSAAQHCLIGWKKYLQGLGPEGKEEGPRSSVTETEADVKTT

[6] = target: T1, rat CB2 receptor; experiment: β-arrestin recruitment assay (PathHunter CHO-K1); format: cell-based; design: host or cells: PathHunter CHO-K1; details: for β-arrestin efficacy compared to CP55,940, rat CB2: relative to CP55,940
[7] = test system: human CB2 receptor versus human CB1 receptor; experiment: CB2 receptor selectivity (ratio of EC50 values, β-arrestin data); format: cell-based
Excerpt: Competition curves were fit to a nonlinear least squares curve fitting program to obtain EC50 values for the β-arrestin data. Selectivity for the CB2 receptor versus the CB1 receptor was obtained by dividing the […].

[8] = target: T2, hCB2; experiment: β-arrestin recruitment assay (PathHunter CHO-K1); format: cell-based; design: host or cells: PathHunter CHO-K1; details: for β-arrestin efficacy compared to CP55,940, human CB2: relative to CP55,940
[9] = target: mouse CB1 receptor (Mus musculus, UniProt P47746); experiment: β-arrestin recruitment assay (PathHunter CHO-K1); format: cell-based
mouse CB1 receptor, sequence (P47746 whole entry): as the sequence (P20272 whole entry) above, with E95D counted along it

[10] = target: T4, CB1 (Homo sapiens, UniProt P21554); experiment: β-arrestin recruitment assay (PathHunter CHO-K1); format: cell-based
T4 sequence (P21554 whole entry): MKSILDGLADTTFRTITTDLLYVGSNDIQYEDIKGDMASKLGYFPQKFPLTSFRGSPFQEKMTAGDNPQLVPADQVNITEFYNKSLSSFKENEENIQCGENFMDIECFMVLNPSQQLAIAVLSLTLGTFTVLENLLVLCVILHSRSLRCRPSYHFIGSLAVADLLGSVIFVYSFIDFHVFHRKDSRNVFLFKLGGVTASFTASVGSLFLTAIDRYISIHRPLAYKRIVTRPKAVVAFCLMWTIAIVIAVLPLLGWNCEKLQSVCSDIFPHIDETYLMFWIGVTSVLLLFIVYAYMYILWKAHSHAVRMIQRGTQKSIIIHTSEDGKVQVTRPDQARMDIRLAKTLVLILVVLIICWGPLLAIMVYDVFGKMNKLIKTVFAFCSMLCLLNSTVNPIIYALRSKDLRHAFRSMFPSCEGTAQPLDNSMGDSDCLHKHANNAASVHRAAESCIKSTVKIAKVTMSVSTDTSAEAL

[11] = test system: MIA-induced osteoarthritis in male Sprague Dawley rats; experiment: Osteoarthritis pain model (MIA); format: in vivo, rat; details: for effect of CB1 antagonist on in vivo efficacy: pain model
Excerpt: Injection of monosodium iodoacetate (MIA) into a joint (J Rheumatol 14:130-1, 1987) inhibits the activity of glyceraldehyde-3-phosphate dehydrogenase in chondrocytes, resulting in disruption of glycolysis and eventually in cell death. The progressive loss of chondrocytes results in histological and morphological changes of the articular cartilage, closely resembling those seen in osteoarthritis patients.
Osteoarthritis was induced in 200 g male Sprague Dawley rats. After brief anesthesia by isoflurane, rats received a single intra-articular injection of MIA (2 mg) (Catalog #19148, Sigma Aldrich, Saint Louis, Mo.) dissolved in 0.9% sterile saline in a 50 μL volume administered through the patella ligament into the joint space of the left knee with a 30 G needle. Following injection, animals were allowed to recover from anesthesia before being returned to the main housing vivarium.
Typically during disease progression, there is an inflammation period of 0-7 days post-intra-articular injection followed by progressive degeneration of the cartilage and subchondral bone from days 14-55. Efficacy studies with a compound described herein took place from day 14 onwards and were performed twice a week with at least three days of wash-out in between each assay. Three different assays can be used to measure pain. Tactile allodynia can be measured via von Frey assay, hind limb paw weight distribution can be monitored using an incapacitance tester (Columbus Instruments, Columbus, Ohio), and hind limb grip strength can be measured using a grip strength meter (Columbus Instruments, Columbus, Ohio). Briefly, the von Frey assay was performed using the standard up/down method with von Frey filaments. Hind paw weight distribution was determined by placing rats in a chamber so that each hind paw rested on a separate force plate of the incapacitance tester. The force exerted by each hind limb (measured in grams) was averaged over a three second period. Three measurements are taken for each rat, and the change in hind paw weight distribution was calculated. Peak hind limb grip force was conducted by recoding the maximum compressive force exerted on the hind limb mesh gauge set on the grip strength meter. During testing, each rat was restrained and the paw of the injected knee was allowed to grip the mesh. The animal was then pulled in an upward motion until their grip was broken. Each rat was tested three times, with the contralateral paw used as a control.
A baseline was established for animals prior to administration of compounds. The MIA-treated groups of rats were then dosed with either vehicle (PEG400, orally), test compound (at 3 mg/kg, 10 mg/kg, and 30 mg/kg, orally), or morphine (3 mg/kg, subcutaneously). The dosing volume was 500 μL. One hour after dosing, von Frey assay, hind limb weight distribution and/or hind limb grip analysis was performed to measure the efficacy of the test compounds.

[12] = target: T4, CB1; details: concentrations less than 30 μM; reported by GSK; cited from earlier work
[13] = target: T4, CB1; details: at 100,000 nM; reported by Lilly; cited from earlier work
[14] = target: T2, hCB2; details: reported by Lilly; cited from earlier work

Row | SMILES | receptor internalization, human CB2 (words) [2] | EC50 [3] | EC50 [5] | β-arrestin efficacy, mouse CB2 [5] | EC50 [6] | β-arrestin efficacy compared to CP55,940, rat CB2 [6] | EC50 [8] | β-arrestin efficacy compared to CP55,940, human CB2 [8] | EC50 [9] | EC50 [10] | also measured
1 | CC(C)(C)NC(=O)c1nn(-c2ccc(F)cc2F)c2c1C1CCC2C1 (stereo not drawn) [GRC 10693] | high efficacy | 290 nM | 0.8 nM | 96% | 2 nM | 89% | 1.2 nM | 100% | 750 nM | 384 nM | receptor internalization, rat CB2 [1]: high efficacy; β-arrestin efficacy, rat CB1 ([3]; relative to reference agonist): 57%; selectivity compared to the CB1 receptor using cAMP assays [4]: greater than 4700 fold; IC50 ([4]; read-out: functional IC50 for the human CB2 receptor): 2.1 nM; selectivity for the human CB2 receptor versus the human CB1 receptor [7]: 320 fold; β-arrestin efficacy, mouse CB1 ([9]; relative to reference agonist): 75%; β-arrestin efficacy, human CB1 ([10]; relative to reference agonist): 57%
2 | O=C(NCC1CCOCC1)c1cnc(Nc2ccc(Cl)cc2Cl)nc1C(F)(F)F [GW842166X] | weak receptor internalization | > 10000 nM | 235 nM | 108% | 427 nM | 97% | 840 nM | 99% | > 10000 nM | > 10000 nM | total granule intensity compared to CP55,940, human CB2 receptor internalization [2]: 53%; receptor internalization, human CB2 (words) ([2]; listed as GW842166): weak CB2 receptor internalization; in vivo efficacy over time in the osteoarthritis pain model ([11]; oral dosing): limited efficacy; effect of CB1 antagonist on in vivo efficacy [11]: blocked by CB1 antagonists; effect of CB1 antagonist on in vivo efficacy ([11]; listed as GW842166): blocked by a CB1 antagonist; CB1 activity [12]: absence of CB1 activity
3 | Cc1nc(N2CCN(C)CC2)c2nc(-c3ccccc3Cl)n(C3CCOCC3)c2n1 [LY2828360] | – | – | – | – | – | – | – | 41% | – | – | IC50 ([5]; antagonist activity, read-out: β-arrestin potency, mouse CB2 (* indicates antagonist activity)): 56 nM; agonist activity in β-arrestin assay, rat CB2 ([6]; compared to CP55,940): absence of agonist activity; GTPγS35 stimulation efficacy, hCB1 [13]: 15 ± 7% at 100,000 nM; GTPγS35 stimulation in vitro efficacy, hCB2 [14]: 87% and 87 ± 2%; IC50 ([9]; antagonist activity, read-out: β-arrestin potency, mouse CB1 (* indicates antagonist activity)): 1000 nM

Reference: US20180252736A1, “CB2 RECEPTOR INTERNALIZATION” (Arena Pharmaceuticals, Inc., priority 2015, published 2018)
